Converted amounts (≈) assume the structure as drawn.
Key:
[1] = biological target: T1, Tyrosine-protein kinase JAK3 (Homo sapiens, UniProt P52333)
T1 sequence (P52333 whole entry): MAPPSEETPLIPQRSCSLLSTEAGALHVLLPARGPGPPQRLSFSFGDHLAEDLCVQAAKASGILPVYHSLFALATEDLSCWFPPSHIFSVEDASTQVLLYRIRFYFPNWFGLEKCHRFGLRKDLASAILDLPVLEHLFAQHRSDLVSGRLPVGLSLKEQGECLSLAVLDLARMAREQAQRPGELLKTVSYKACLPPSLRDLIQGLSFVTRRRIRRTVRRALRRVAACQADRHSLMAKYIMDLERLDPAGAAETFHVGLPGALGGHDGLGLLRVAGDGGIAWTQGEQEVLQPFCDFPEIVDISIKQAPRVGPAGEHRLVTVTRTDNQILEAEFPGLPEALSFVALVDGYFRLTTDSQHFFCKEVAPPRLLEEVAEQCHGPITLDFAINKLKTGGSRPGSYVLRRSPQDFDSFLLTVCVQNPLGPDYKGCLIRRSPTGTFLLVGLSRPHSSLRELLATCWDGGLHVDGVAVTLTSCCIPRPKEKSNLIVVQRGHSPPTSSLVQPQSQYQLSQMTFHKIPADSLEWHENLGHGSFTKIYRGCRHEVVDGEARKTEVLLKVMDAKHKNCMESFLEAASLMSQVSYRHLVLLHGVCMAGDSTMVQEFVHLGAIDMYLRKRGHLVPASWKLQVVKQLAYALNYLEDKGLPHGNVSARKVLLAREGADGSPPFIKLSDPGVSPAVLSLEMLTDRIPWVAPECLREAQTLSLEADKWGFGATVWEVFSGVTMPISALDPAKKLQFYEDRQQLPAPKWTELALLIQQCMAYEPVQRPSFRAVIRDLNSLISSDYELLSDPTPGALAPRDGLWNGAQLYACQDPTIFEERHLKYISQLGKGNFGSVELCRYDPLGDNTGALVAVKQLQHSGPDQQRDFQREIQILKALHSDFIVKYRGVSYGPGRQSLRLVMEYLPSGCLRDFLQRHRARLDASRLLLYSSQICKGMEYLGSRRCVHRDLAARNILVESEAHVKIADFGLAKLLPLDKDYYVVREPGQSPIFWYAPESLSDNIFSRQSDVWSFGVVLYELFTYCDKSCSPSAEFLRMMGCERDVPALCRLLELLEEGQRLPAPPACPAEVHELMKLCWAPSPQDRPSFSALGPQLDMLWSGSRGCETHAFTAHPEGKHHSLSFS

[2] = biological target: T2, Tyrosine-protein kinase JAK1 (Homo sapiens, UniProt P23458)
T2 sequence (P23458 whole entry): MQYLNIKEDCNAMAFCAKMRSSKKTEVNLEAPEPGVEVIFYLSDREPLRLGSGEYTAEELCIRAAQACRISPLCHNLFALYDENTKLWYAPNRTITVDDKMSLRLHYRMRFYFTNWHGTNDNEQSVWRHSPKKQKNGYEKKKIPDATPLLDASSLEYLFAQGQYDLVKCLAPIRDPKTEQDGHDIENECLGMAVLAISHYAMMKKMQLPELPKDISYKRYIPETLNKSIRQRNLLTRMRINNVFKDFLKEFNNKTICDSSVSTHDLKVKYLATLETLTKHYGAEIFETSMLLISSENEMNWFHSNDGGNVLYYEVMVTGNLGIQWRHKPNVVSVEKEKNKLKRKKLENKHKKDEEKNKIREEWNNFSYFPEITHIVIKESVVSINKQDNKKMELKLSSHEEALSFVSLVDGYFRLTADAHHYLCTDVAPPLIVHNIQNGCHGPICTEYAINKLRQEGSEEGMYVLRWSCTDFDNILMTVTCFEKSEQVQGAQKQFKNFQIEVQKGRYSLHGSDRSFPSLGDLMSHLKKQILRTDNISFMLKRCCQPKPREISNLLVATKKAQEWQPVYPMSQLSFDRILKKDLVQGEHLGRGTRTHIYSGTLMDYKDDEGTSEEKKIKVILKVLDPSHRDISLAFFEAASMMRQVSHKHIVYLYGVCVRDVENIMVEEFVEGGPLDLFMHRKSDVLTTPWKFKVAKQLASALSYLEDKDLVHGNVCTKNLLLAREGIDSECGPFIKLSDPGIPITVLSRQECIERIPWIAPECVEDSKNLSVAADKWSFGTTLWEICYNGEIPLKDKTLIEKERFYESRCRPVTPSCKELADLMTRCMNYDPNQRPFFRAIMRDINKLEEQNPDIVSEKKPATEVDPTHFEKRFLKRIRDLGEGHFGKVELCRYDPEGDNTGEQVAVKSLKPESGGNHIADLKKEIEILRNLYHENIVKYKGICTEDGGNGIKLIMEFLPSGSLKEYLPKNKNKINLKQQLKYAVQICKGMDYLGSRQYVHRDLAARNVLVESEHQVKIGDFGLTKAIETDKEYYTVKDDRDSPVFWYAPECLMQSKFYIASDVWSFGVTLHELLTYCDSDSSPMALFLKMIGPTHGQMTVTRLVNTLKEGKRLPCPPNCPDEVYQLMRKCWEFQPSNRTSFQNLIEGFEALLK
Description: Inhibition of JAK1 in human STAT6-bla-RA1 cells assessed as reduction in IL4-induced STAT6-signalling pre-incubated for 1 hrs before human recombinant IL4 addition and further incubated for 4 hrs fluorescence based assay

[3] = biological target: T3, Tyrosine-protein kinase JAK2 (Homo sapiens, UniProt O60674)
T3 sequence (O60674 whole entry): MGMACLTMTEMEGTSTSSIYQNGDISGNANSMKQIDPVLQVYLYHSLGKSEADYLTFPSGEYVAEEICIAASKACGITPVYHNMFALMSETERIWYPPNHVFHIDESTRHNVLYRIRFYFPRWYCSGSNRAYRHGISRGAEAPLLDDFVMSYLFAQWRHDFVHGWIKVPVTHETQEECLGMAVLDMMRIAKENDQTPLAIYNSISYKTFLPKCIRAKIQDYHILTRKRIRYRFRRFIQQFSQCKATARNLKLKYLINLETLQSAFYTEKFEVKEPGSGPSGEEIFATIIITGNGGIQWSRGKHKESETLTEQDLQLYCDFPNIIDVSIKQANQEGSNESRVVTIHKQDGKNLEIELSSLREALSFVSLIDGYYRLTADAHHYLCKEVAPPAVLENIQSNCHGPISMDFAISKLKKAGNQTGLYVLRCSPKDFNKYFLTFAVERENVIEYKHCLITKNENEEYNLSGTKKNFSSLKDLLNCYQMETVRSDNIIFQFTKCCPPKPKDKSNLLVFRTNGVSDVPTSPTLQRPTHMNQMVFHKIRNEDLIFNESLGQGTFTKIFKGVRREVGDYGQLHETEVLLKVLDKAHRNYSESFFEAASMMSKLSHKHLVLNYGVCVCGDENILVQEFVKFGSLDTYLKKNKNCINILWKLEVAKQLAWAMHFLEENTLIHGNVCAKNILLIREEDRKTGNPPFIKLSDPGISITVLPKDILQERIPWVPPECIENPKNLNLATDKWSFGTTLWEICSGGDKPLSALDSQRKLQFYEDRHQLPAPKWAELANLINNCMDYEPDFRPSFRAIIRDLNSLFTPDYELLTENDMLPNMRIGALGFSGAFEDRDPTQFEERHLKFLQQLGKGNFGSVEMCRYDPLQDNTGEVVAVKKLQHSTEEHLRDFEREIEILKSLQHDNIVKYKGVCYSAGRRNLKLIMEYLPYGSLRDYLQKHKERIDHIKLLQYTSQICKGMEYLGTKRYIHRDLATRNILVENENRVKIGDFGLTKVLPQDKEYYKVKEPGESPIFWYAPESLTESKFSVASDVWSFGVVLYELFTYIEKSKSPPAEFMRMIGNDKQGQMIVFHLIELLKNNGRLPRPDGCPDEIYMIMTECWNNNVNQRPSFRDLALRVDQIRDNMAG

physchem [4] = settings: octanol/water
Description: Lipophilicity, logD of the compound by shake flask assay

physchem [5] = settings: PBS buffer, pH 7.4
Description: Aqueous solubility in PBS buffer at pH 7.4 by HPLC analysis

in vitro [6] = settings: human, liver microsomes
Description: Apparent intrinsic clearance in human liver microsomes

[7] = biological target: T2, Tyrosine-protein kinase JAK1; remark: listed apart in the source
[8] = biological target: T3, Tyrosine-protein kinase JAK2; remark: listed apart in the source
Description: Inhibition of JAK2 in human STAT5-irf1-bla TF1 cells assessed as reduction in EPO-induced STAT5-signalling pre-incubated for 1 hrs before EPO addition and further incubated for 4 hrs fluorescence based assay

[9] = biological target: Non-receptor tyrosine-protein kinase TYK2 (Homo sapiens, UniProt P29597)
Chain of Non-receptor tyrosine-protein kinase TYK2 (P29597 whole entry): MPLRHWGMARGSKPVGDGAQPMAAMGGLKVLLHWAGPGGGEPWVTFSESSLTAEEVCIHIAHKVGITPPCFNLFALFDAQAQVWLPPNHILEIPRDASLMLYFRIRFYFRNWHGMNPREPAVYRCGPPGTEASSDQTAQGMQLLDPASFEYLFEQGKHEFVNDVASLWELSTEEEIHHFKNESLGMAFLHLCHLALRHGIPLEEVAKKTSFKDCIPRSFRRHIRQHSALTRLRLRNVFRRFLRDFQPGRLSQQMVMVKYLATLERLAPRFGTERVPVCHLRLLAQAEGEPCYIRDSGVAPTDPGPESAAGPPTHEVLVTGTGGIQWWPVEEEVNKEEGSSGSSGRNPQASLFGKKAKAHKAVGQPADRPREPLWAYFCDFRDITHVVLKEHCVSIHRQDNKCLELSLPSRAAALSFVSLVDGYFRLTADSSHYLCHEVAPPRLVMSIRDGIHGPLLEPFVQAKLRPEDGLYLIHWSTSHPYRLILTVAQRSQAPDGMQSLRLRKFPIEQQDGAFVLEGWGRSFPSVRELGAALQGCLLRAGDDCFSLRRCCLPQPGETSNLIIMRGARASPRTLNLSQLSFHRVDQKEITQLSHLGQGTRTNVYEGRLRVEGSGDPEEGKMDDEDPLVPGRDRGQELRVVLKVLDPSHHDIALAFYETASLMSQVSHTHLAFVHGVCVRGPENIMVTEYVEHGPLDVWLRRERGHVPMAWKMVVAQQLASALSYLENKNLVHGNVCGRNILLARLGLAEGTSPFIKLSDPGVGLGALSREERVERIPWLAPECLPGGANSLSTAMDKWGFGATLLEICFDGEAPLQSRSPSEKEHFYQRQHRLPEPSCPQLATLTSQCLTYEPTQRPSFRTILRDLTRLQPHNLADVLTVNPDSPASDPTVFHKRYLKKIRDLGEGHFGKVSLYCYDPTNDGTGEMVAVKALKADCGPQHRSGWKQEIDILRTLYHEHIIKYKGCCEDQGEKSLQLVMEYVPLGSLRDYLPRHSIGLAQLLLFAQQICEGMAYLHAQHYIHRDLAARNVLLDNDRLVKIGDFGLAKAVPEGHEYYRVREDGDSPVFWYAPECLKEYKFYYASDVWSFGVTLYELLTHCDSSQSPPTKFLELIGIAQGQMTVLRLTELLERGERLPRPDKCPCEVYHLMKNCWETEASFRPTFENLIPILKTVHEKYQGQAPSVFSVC

[10] = biological target: Voltage-gated inwardly rectifying potassium channel KCNH2 (Homo sapiens, UniProt Q12809); test: Binding affinity to human ERG at 30 uM
[11] = Oral bioavailability in rat at […]; type: ADME, organism-based; settings: in vivo
Cytochrome P450 3A4 = Cytochrome P450 3A4 (Homo sapiens, UniProt P08684); test: Inhibition of CYP3A4 (unknown origin) up to 25 uM; type: ADME
[12] = Protein binding in rat plasma assessed as unbound fraction; type: ADME, cell-free
[13] = Apparent permeability in human Caco2 cells; type: ADME, cell-based; settings: Caco-2
Cytochrome P450 2C9 = Cytochrome P450 2C9 (Homo sapiens, UniProt P11712); test: Inhibition of CYP2C9 (unknown origin) up to 25 uM; type: ADME
Chain of Cytochrome P450 2C9 (P11712 whole entry): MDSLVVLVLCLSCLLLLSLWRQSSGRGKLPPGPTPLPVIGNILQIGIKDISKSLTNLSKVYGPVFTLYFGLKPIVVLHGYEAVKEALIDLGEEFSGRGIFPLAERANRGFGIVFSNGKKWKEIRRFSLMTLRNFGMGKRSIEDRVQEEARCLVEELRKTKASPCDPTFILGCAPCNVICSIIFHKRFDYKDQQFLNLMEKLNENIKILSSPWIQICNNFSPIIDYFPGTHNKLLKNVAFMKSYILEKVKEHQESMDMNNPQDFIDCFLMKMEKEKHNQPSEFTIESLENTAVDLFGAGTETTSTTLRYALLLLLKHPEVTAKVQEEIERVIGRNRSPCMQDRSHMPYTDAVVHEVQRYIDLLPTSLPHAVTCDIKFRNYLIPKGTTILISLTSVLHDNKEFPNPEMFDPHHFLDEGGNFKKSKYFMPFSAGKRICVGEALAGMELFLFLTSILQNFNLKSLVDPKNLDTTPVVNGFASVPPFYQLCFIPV

[14] = Clearance in rat at […], po or 0.06 mg/kg, iv; type: ADME, organism-based; settings: in vivo
[15] = Half life in rat at […], po or 0.06 mg/kg, iv; type: ADME, organism-based; settings: in vivo
Cytochrome P450 2D6 = Cytochrome P450 2D6 (Homo sapiens, UniProt P10635); test: Inhibition of CYP2D6 (unknown origin) up to 25 uM; type: ADME
Chain of Cytochrome P450 2D6 (P10635 whole entry): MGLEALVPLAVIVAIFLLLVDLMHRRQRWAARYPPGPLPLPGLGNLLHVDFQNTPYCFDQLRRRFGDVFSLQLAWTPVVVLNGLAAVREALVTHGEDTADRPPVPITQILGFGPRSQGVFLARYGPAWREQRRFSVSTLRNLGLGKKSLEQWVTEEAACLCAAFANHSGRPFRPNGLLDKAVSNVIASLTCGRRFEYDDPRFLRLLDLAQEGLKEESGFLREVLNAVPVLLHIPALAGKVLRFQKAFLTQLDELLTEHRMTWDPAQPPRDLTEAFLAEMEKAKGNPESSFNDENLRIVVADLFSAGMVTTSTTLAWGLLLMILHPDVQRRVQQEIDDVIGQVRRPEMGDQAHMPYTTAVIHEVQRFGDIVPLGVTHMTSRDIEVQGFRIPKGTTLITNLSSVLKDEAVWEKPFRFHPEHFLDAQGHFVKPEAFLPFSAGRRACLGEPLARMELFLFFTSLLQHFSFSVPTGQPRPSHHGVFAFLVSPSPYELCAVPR

in vitro [16] = settings: rat, liver microsomes
Description: Apparent intrinsic clearance in rat liver microsomes

in vitro [17] = settings: rat, hepatocytes
Description: Apparent intrinsic clearance in rat hepatocytes

[18] = biological target: Fibroblast growth factor receptor 1 (Homo sapiens) (UniProt P11362); test: Inhibition of human FGFR1 cytoplasmic domain (398 to 822(end) residues) at 1 mM ATP relative to control
[19] = Terminal Phase volume of distribution […] in rat at […], po or 0.06 mg/kg, iv; type: ADME, organism-based; settings: in vivo, read-out: Vbeta
Cytochrome P450 2C19 = Cytochrome P450 2C19 (Homo sapiens, UniProt P33261); test: Inhibition of CYP2C19 (unknown origin) up to 25 uM; type: ADME
Chain of Cytochrome P450 2C19 (P33261 whole entry): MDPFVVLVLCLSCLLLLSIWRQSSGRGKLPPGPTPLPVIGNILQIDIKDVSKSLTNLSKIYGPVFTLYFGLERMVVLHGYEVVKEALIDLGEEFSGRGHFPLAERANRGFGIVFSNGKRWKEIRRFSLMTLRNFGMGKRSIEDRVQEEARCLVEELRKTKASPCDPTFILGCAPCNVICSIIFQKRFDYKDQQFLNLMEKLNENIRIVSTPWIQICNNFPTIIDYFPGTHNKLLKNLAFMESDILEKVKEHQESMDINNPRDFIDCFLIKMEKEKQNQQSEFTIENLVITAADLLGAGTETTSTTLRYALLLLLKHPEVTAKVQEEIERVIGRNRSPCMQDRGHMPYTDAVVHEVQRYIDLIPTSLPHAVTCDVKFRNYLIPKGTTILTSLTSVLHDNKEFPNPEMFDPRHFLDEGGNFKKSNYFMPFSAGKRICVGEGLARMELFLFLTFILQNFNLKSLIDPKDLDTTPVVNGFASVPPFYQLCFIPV

Cytochrome P450 1A2 = biological target: T4, Cytochrome P450 1A2 (Homo sapiens, UniProt P05177); test: Inhibition of CYP1A2 (unknown origin) up to 25 uM; type: ADME
T4 sequence (P05177 whole entry): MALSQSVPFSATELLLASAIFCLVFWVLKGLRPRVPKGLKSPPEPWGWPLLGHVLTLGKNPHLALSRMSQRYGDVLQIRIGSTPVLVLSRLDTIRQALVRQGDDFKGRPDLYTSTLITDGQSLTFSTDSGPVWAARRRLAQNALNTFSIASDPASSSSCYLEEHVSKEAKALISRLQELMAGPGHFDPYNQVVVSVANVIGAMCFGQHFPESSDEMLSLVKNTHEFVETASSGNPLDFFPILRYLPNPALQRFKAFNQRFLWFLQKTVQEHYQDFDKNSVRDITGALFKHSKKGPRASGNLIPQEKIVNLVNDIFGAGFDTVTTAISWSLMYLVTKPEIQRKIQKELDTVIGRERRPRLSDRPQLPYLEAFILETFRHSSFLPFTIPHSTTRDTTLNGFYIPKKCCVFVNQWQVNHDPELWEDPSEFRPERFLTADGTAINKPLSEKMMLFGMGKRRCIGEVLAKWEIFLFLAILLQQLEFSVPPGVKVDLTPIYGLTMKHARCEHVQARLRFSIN

[20] = Drug absorption in rat at […], po; type: ADME, organism-based; settings: in vivo, read-out: Fabs

| SMILES | IC50 [1] | IC50 [2] | IC50 [3] | logD (physchem [4]) | solubility (physchem [5]) | CLint scaled (in vitro [6]) | IC50 [7] | IC50 [8] | IC50 [9] | further results |
| --- | --- | --- | --- | --- | --- | --- | --- | --- | --- | --- |
| Cc1[nH]nc2[nH]c(=O)cc([C@H]3CC[C@H](CC(=O)N4CC(C#N)C4)CC3)c12 | 97 nM | > 30000 nM | 64 nM | 0.5 | 540 µM (≈ 191 µg/mL) | < 8 mL/min/kg | 13 nM | > 30000 nM | – | – |
| Cc1[nH]nc2[nH]c(=O)cc([C@H]3CC[C@H](CC(=O)N4CCC(C#N)C4)CC3)c12 (mixture of isomers) | 150 nM | 14000 nM | 89 nM | 0.7 | 85 µM (≈ 31.2 µg/mL) | < 8 mL/min/kg | 11 nM | > 45000 nM | – | – |

Second part, led by results:

| IC50 [1] | IC50 [2] | IC50 [3] | logD (physchem [4]) | solubility (physchem [5]) | CLint scaled (in vitro [6]) | IC50 [7] | IC50 [8] | IC50 [9] | SMILES | further results |
| --- | --- | --- | --- | --- | --- | --- | --- | --- | --- | --- |
| 220 nM | – | 150 nM | 1.5 | > 92 µM | < 8 mL/min/kg | – | 24000 nM | 220 nM | Cc1[nH]nc2[nH]c(=O)cc([C@@H]3C[C@@H]4C[C@H]3C[C@@H]4CC#N)c12 | – |
| 970 nM | – | 360 nM | 1.6 | 290 µM (≈ 81.9 µg/mL) | < 8 mL/min/kg | – | > 43000 nM | 330 nM | Cc1[nH]nc2[nH]c(=O)cc([C@H]3C[C@H]4C[C@@H]3C[C@H]4CC#N)c12 | – |
| 88 nM | – | 12 nM | 1.5 | 89 µM (≈ 25.1 µg/mL) | < 8 mL/min/kg | – | 2800 nM | 20 nM | Cc1[nH]nc2[nH]c(=O)cc([C@H]3C[C@H]4C[C@@H]3C[C@@H]4CC#N)c12 | Activity [10]: Not Active; bioavailability [11]: 14%; inhibition (INH) (Cytochrome P450 3A4): Not Active; fraction unbound [12]: 0.22; Papp [13]: 0.7 ×10⁻⁶ cm/s; inhibition (INH) (Cytochrome P450 2C9): Not Active; clearance [14]: 53 mL/min/kg; half-life [15]: 18 min; inhibition (INH) (Cytochrome P450 2D6): Not Active; CLint scaled (in vitro [16]): < 15 mL/min/kg; CLint scaled (in vitro [17]): 25 mL/min/kg; inhibition [18]: 32%; Vd [19]: 1.2 L/kg; inhibition (INH) (Cytochrome P450 2C19): Not Active; inhibition (INH) (Cytochrome P450 1A2): Not Active; Fa [20]: 41% |

— ChEMBL document CHEMBL4610114, “Fragment-Based Discovery of Pyrazolopyridones as JAK1 Inhibitors with Excellent Subtype Selectivity” (J Med Chem, 2020)
